System: glioblastoma multiforma
Experiment: Clinical use in patients with advanced recurrent glioblastoma multiforma
Assay type: in vivo, human
Procedure: Four patients, which were diagnosed with advanced recurrent glioblastoma multiforma, were treated with taurolidine. The prognosis for this group of patients was determined to be approximately 8 weeks of survival.

## O=S1(=O)CCN(CN2CCS(=O)(=O)NC2)CN1 [Taurolidine, Bis-(1,1-dioxoperhydro-1,2,4-thiadiazinyl-4)methane]
20 g infused intravenously over 6 hours twice a week, at least one 5 week regimen, four patients
  patients in whom the tumor mass decreased or stayed the same: 3 out of the 4
At 14 weeks after the initiation of therapy, prognosis approximately 8 weeks
  survival: each of the patients remains alive
